Earlier results on one substance are cited in US6444811B1, “Pyrazinones, compositions containing such compounds and methods of use” (Merck Frosst Canada & Co., priority 1999, dated 2002).

Series [1] has as its target T1, caspase-1 (Homo sapiens, UniProt P29466).
T1 sequence (P29466 120-297 limits assumed): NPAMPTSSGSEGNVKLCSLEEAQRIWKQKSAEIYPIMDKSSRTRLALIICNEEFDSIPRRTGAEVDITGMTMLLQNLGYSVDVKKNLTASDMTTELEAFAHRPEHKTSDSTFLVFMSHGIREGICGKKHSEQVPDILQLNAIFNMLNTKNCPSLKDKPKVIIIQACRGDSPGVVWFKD
T1 sequence (P29466 317-404 limits assumed): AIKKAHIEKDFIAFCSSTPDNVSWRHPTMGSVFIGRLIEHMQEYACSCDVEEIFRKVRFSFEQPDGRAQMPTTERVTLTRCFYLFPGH

For series [2], the target named is T2, caspase-3 (Homo sapiens, UniProt P42574).
T2 sequence (P42574 29-175 limits assumed): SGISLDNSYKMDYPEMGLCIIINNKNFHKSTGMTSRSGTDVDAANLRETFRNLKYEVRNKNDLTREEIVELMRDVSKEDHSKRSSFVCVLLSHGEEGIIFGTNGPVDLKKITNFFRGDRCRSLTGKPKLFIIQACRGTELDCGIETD
T2 sequence (P42574 176-277 limits assumed): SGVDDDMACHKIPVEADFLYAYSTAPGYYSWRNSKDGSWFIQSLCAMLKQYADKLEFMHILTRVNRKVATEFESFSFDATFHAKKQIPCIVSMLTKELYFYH

A word on the Ki: it is the equilibrium dissociation constant of an inhibitor or competing ligand from its target. In the case of Ac-YVAD-CHO, the Ki is less than 0.001 µM in series [1] and 12 µM in series [2]. Moreover, in series [1] (slow-binding time-dependent inhibition), the “kon caspase-1” value was 380000 M⁻¹ s⁻¹.
